For the assay, the system named is human immature monocyte-derived dendritic cells (DCs). In words: Cytokine/chemokine secretion by human immature monocyte-derived dendritic cells (ELISA). To be noted: for IL-6 secretion / IL-8 secretion / IL-10 secretion / IL-12 secretion / IL-18 secretion / TNFα secretion: HUMAN DC, ELISA 48 h after exposure, relative to untreated cells; for secretion of IL-6 by DCs: FIGS. 1A, 1B. Format: cell-based. Further details: key to TNFα secretion / IL-18 secretion / IL-8 secretion / IL-10 secretion / IL-6 secretion / IL-12 secretion: “+” indicates an increase; “−” indicates no change relative to untreated cells (medium). How it is done: Peripheral blood mononuclear cells (PBMCs) were isolated from the blood of normal volunteers (Long Island Blood Services, Melville, N.Y.) over a Ficoll-Hypaque (Amersham Biosciences, Uppsala, Sweden) density gradient. CD14^+ monocytes were isolated from PBMCs by positive selection using anti-CD14 beads (Miltenyi Biotech., Auburn, Calif.), following the manufacturer's instructions. To generate DCs, CD14^+ cells were cultured in RPMI 1640 medium supplemented with 2 mM L-glutamine (GIBCO-BRL Life Technologies, Grand Island, N.Y.), 50 μM 2-mercaptoethanol (Sigma, St. Louis, Mo.), 10 mM HEPES (GIBCO-BRL), penicillin (100 U/ml), streptomycin (100 μg/ml) (GIBCO-BRL), and 5% human AB serum (Gemini Bio-Products, Woodland, Calif.). Cultures were maintained for 7 days in 6-well trays (3×10^6 cells/well) supplemented with 1000 U GM-CSF per ml (Immunex, Seattle, Wash.) and 200 U IL-4 per ml (R&D Systems, Minneapolis, Minn.) at days 0, 2, 4 and 6.
Recombinant HMGB1-B box domain (HMGB1-Bx) was expressed in Escherichia coli and purified as described by Li, et al. (Mol. Med. 9:37-45; J. Immunol. Methods 289:211-223 (2004)). Purified HMGB1-Bx contained trace amounts of LPS (19 pg LPS/μg HMGB1-Bx) as measured by the chromogenic Limulus amebocyte lysate assay (BioWhittacker Inc, Walkersville, Md.). All experiments using HMGB1-Bx, as well as the HMGB1 peptides, were performed in the presence of polymyxin B (200 U/ml) to neutralize the amount of contaminating LPS in the HMGB1-Bx and peptide preparations. We have previously shown that the DC stimulatory capacity of HMGB1-Bx requires an intact tertiary structure and is not due to contaminating amounts of LPS, as trypsinization abolished HMGB1-Bx activity (Messmer, et al., J. Immunol. 173: 307-313 (2004); the entire teachings of which are incorporated herein by reference).
Secreted cytokine/chemokine levels were measured by ELISA (Pierce Boston Technology Center, SearchLight™ Proteome Arrays Multiplex Sample Testing Services, Woburn, Mass.) 48 h after addition of the various peptides. Polymyxin B (200 U/ml) was added to all cultures, except those containing LPS, before the stimuli were added. Immature monocyte-derived human dendritic cells (DCs) and immature bone-marrow derived murine dendritic cells (BM-DCs) were cultured either in the presence of HMGB1 peptides (200 μg/ml), whose sequences map to different regions of the HMGB1 protein (see Table 1), the entire HMGB1 B-box domain (HMGB1-Bx) (50 μg/ml), or LPS (100 ng/ml). Untreated cells (medium) were tested as a control. Each peptide was named according to the corresponding position of its first amino acid within the full-length HMGB1 sequence. All peptides were N-terminally biotinylated except “Hp-106 (non bio)”.
(In general: ELISA stands for enzyme-linked immunosorbent assay.)

[1] abbreviates: peptides 200 μg/ml, HMGB1-Bx 50 μg/ml.
[2] abbreviates: human DCs, peptides 200 μg/ml, 48 h.

Where no end group is shown, it is not given here. The star is where a group is joined. Biotin = O=C1N[C@H]2[C@H](CS[C@H]2CCCCC(=O)*)N1

For YAFFVQTCREEHIKKHPD [Hp-16], under setting [1], the IL-6 secretion result is recorded as “−”, the IL-8 secretion entry was “−”, the IL-10 secretion result was “−” and the IL-12 secretion result was “−”. Under setting [1], the IL-18 secretion result is given as “−” and the TNFα secretion result is listed as “−”. For the same sequence, for the setting “human DCs”, the “cytokine secretion by human DCs” value was “did not stimulate cytokine secretion and not”. Moreover, the “secretion of IL-6 by DCs” value under setting [2] is “did not induce IL-6 secretion”.

Regarding “CSEYRPKIKGEHPGLSIG [Hp-106] (Biotin-CSEYRPKIKGEHPGLSIG; listed as Homo sapiens)”, under setting [1], the IL-6 secretion entry is given as “+”, the IL-8 secretion entry is “−”, the IL-10 secretion result was “−” and the IL-12 secretion result is “+”. Further, under setting [1], the IL-18 secretion result is “+” and the TNFα secretion entry is given as “+”. In addition, the “cytokine secretion by human DCs” value (human DCs) was “induced cytokine secretion by human DCs”. The “secretion of IL-12 (p70)” value (human DCs, FIG. 1C, peptides 200 μg/ml, 48 h) is listed as “induced secretion”. The “secretion of TNF-α” value (human DCs, FIG. 1D, peptides 200 μg/ml, 48 h) is given as “induced secretion”. Also, where the note is “human DCs, FIG. 1E, peptides 200 μg/ml, HMGB1-Bx 50 μg/ml, 48 h”, the “secretion of IL-18” value is recorded as “induced secretion”. Where the note is “human DCs, FIG. 1F, peptides 200 μg/ml, HMGB1-Bx 50 μg/ml, 48 h”, the “secretion of IL-8” value was “did not induce secretion”. Further, under setting [2], the “secretion of IL-6 by DCs” value is on record as “induced secretion”.
